Measurements as given in ChEMBL document CHEMBL1142875, “Synthesis and biological evaluation of 4-alkylamino-6-(2-hydroxyethyl)-2-methylthiopyrimidines as new rubella virus inhibitors” (Eur J Med Chem, 2007).
pIC50: −log10 of the molar value.

Tests used:
[1] = Cytotoxicity against Vero cells after 48 hrs; assay type: cell-based; conditions: chlorocebus sabaeus
[2] = Antiviral activity against Rubella virus strain THERIEN in Vero cells; assay type: functional, cell-based
[3] = Selectivity index, Ratio of CC50 for Vero cells to IC50 for Rubella virus strain THERIEN; assay type: functional
[4] = Inhibition of Rubella virus strain THERIEN in Vero cells after 48 hrs of high multiplicity infection by plaque assay; assay type: functional; set-up: concentration or dose not given beside the values

Row | SMILES | CC50 at 48 h [1] [µM] | pIC50 [2] | Ratio CC50/IC50 [3] | Inhibition [4] [%]
1 | CSc1nc(CCO)cc(N2CCC(C)CC2)n1 | 233 | 4.32 | 4.9 | 96.5
2 | C=CCNc1nc(SC)nc(CCO)c1I | 356 | 4.80 | 22.7 | 93.9
3 | CCCCN(CCCC)c1cc(CCO)nc(SC)n1 | 52.5 | 4.87 | 3.9 | 87
4 | CSc1nc(CCO)cc(N2CCC2)n1 | 556 | < 3.56 | <2 | 35.6
5 | CSc1nc(CCO)cc(N(C)Cc2ccccc2)n1 | 108 | < 4.27 | <2 | 31.9
6 | CSc1nc(CCO)cc(N(C)C)n1 | 587 | 4.09 | 7.3 | 92.8
7 | C#CCN(C)c1cc(CCO)nc(SC)n1 | 1050 | 3.94 | 9.3 | 92.1
8 | COc1ccccc1N1CCN(c2cc(CCO)nc(SC)n2)CC1 | 174 | 4.56 | 6.2 | 96.1
9 | CSc1nc(CCO)cc(N2CCN(c3cccc(C(F)(F)F)c3)CC2)n1 | 39.2 | 4.75 | 2.2 | 58.9
10 | CCCN(C)c1cc(CCO)nc(SC)n1 | 519 | 4.60 | 20.5 | 94.2
11 | C#CCNc1nc(SC)nc(CCO)c1Br | 827 | 3.83 | 5.6 | 94.4
12 | CCCN(CCC)c1cc(CCO)nc(SC)n1 | 58 | < 4.54 | <2 | 0
13 | CCCCCNc1nc(SC)nc(CCO)c1Br | 93.3 | 4.43 | 2.5 | 60
14 | CSc1nc(CCO)cc(N2CCN(C(C)=O)CC2)n1 | 422 | 4.31 | 8.6 | 65.6
15 | C=CCNc1nc(SC)nc(CCO)c1Br | 411 | 4.29 | 8.1 | 86.9
16 | C=CCNc1nc(SC)nc(CCO)c1Cl | 481 | 4.36 | 11.1 | 83

Row | SMILES | CC50 at 48 h [1] [µM] | pIC50 [2] | Ratio CC50/IC50 [3] | Inhibition [4] [%]
17 | CCCCCNc1cc(CCO)nc(SC)n1 | 245 | 4.67 | 11.4 | 94.7
18 | CSc1nc(CCO)cc(N2CCN(c3ccc(F)cc3)CC2)n1 | 180 | 4.29 | 3.5 | 93.2
19 | CSc1nc(CCO)cc(N(CCO)CCO)n1 | 1820 | 3.77 | 10.7 | 95.7
20 | C=CCN(CC=C)c1cc(CCO)nc(SC)n1 | 249 | 3.95 | 2.2 | 54.7
21 | CSc1nc(CCO)cc(N2CCN(c3ccccc3)CC2)n1 | 189 | 4.24 | 3.3 | 90
22 | CSc1nc(CCO)cc(N2CCSCC2)n1 | 461 | < 3.64 | <2 | 45.2
23 | COc1ccc(Nc2cc(CCO)nc(SC)n2)cc1 | 430 | < 3.67 | <2 | 43.3
24 | CSc1nc(CCO)cc(N2CCCC2)n1 | 523 | 4.32 | 10.9 | 72.6
25 | C#CCNc1nc(SC)nc(CCO)c1I | 716 | 4.47 | 21 | 97.3
26 | CSc1nc(CCO)cc(NCc2ccc(Cl)cc2Cl)n1 | 182 | 4.32 | 3.8 | 76.1
27 | CCCCCNc1nc(SC)nc(CCO)c1I | 81.8 | 4.56 | 3 | 95.1
28 | CSc1nc(CCO)cc(N2CCSC2)n1 | 486 | 4.65 | 21.6 | 95.3
29 | CSc1nc(CCO)cc(N2CCN(C)CC2)n1 | 466 | < 3.63 | <2 | 20.6
30 | C#CCNc1cc(CCO)nc(SC)n1 | 1120 | 3.97 | 10.4 | 98.8
31 | C#CCNc1nc(SC)nc(CCO)c1Cl | 485 | 3.87 | 3.6 | 85.4
32 | CCCCCNc1nc(SC)nc(CCO)c1Cl | 108 | 4.79 | 6.6 | 66.4
